Measurements taken from patent US11104648B2, “Pyrazole derivative” (Zhejiang Research Institute of Chemical Industry Co., Ltd., priority 2018, dated 2021).
Read-outs that look alike come from different tables or passages of the source.

Key:
Format in all cases: in vivo
[1] = system: Tetranychus cinnabarinus Nymphs; test: Activity assay of Tetranychus cinnabarinus nymphs (spray on broad bean leaves)
How it was run: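 Compound in DMF (≤10%) diluted in 1‰ Tween 80 water was sprayed onto broad bean leaves carrying nymphs hatched from eggs laid by female adults over 24 h. Kept at 26±2° C., 70%–80% humidity, 16 h light; mortality (no response to touch) assessed after 48 h, three replicates with blank control.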

[2] = system: Eggs of Tetranychus Cinnabarinus; test: Activity assay of eggs of Tetranychus cinnabarinus (spray method, ovicidal); conditions: Tetranychus cinnabarinus; for pest or weed control at 2 µg/mL: concentration 2 mg/L
How it was run: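 Female mites laid eggs on broad bean leaves for 24 h, adults removed, eggs sprayed with compound in DMF (≤10%)/1‰ Tween 80. Held at 26±2° C, 70–80% humidity, 16 h light; unhatched eggs counted dead once blank control hatched. Three replicates.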

[3] = system: adult Tetranychus cinnabarinus; test: Activity assay of adult Tetranychus cinnabarinus (whole-plant spray on bean seedlings); conditions: 48 h; for pest or weed control at 1.25 µg/mL: concentration 1.25 mg/L
How it was run: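 Bean seedlings at two-true-leaf stage, infested with adult mites and base count taken, sprayed whole-plant with compound in DMF (≤10%) diluted in 1‰ Tween 80. Three replicates per treatment kept in standard observation room. Surviving mites counted at 48 h to give death rate.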

[4] = 48 h, concentration 2.5 mg/L, read-out: nymph-killing activity
[5] = concentration 5 mg/L, spray, non-incubated eggs counted as dead, read-out: ovicidal activity
[6] = concentration 2.5 mg/L, read-out: adult mite-killing activity
[7] = 48 h, concentration 2 mg/L, read-out: nymph-killing activity
[8] = spray, read-out: ovicidal activity
[9] = read-out: adult mite-killing activity
[10] = 48 h, nymphs, concentration 0.5 mg/L, parallel determination, read-out: Death rate (%)
[11] = eggs, parallel determination, read-out: Death rate (%)
[12] = adult mites, parallel determination, read-out: Death rate (%)

Row | SMILES | pest or weed control at 2.5 µg/mL [1, 4] | pest or weed control at 5 µg/mL [2, 5] | pest or weed control at 2.5 µg/mL [3, 6] | also measured
1 | CCCC(=O)OCO/C(=C(/C#N)c1ccc(C(C)(C)C)cc1)c1cc(C)nn1CC [Compound 228] | ≥ 95% | ≥ 90% | ≥ 90% | 
2 | CCn1nc(C)c(Cl)c1/C(OCOC(=O)C(C)C)=C(\C#N)c1ccc(C(C)(C)C)cc1 [Compound 304] | ≥ 95% | ≥ 90% | ≥ 90% | 
3 | CCCOC(=O)OCO/C(=C(/C#N)c1ccc(C(C)(C)C)cc1)c1c(C)c(C)nn1CC [Compound 933] | ≥ 95% | ≥ 90% | ≥ 90% | pest or weed control at 2 µg/mL [1, 7]: ≥ 90%; pest or weed control at 2 µg/mL [2, 8]: ≥ 90%; pest or weed control at 1.25 µg/mL [3, 9]: ≥ 90%
4 | CC(C)(C)C(=O)OCOC(=C(C#N)c1ccc(C(C)(C)C)cc1)c1ccccc1C(F)(F)F [Compound 8-1, reference compound] | < 80% | < 30% | < 80% | pest or weed control at 0.5 µg/mL ([1]; 48 h, concentration 0.5 mg/L, read-out: nymph-killing activity): < 30%; pest or weed control at 0.5 µg/mL [1, 10]: 25%; pest or weed control at 2 µg/mL [2, 8]: 0%; pest or weed control at 2 µg/mL [2, 11]: 0%; pest or weed control at 1.25 µg/mL [3, 12]: 45%; pest or weed control at 1.25 µg/mL [3, 9]: < 50%
5 | CCn1nc(C)cc1/C(OC(C)OC(=O)C(F)(F)F)=C(\C#N)c1ccc(C(C)(C)C)cc1 (stereo not drawn) [Compound 263] | ≥ 95% | ≥ 90% | ≥ 90% | 
6 | CCn1nc(C)cc1/C(OCOC(=O)C(C)(C)CC)=C(\C#N)c1ccc(C(C)(C)C)cc1 [Compound 241] | ≥ 95% | ≥ 90% | ≥ 90% | pest or weed control at 0.5 µg/mL [1, 10]: 100%; pest or weed control at 2 µg/mL [2, 11]: 100%; pest or weed control at 1.25 µg/mL [3, 12]: 100%
7 | Cc1nn(C)c(/C(OC(C)OC(=O)C2CC2)=C(\C#N)c2ccc(C(C)(C)C)cc2)c1Cl (stereo not drawn) [Compound 109] | ≥ 95% | ≥ 90% | ≥ 90% | 
8 | CCn1nc(C)c(Cl)c1/C(OC(C)OC(=O)C(C)(C)CC)=C(\C#N)c1ccc(C(C)(C)C)cc1 (stereo not drawn) [Compound 341] | ≥ 95% | ≥ 90% | ≥ 90% | 
9 | CCn1nc(C)cc1/C(OCOC(=O)CSC)=C(\C#N)c1ccc(C(C)(C)C)cc1 [Compound 235] | ≥ 95% | ≥ 90% | ≥ 90% | 
10 | Cc1nn(C)c(/C(OCOC(=O)c2ccccc2)=C(\C#N)c2ccc(C(C)(C)C)cc2)c1C [Compound 164] | ≥ 95% | ≥ 90% | ≥ 90% | 
11 | Cc1nn(C)c(/C(OC(C)OC(=O)c2ccccc2)=C(\C#N)c2ccc(C(C)(C)C)cc2)c1Cl (stereo not drawn) [Compound 114] | ≥ 95% | ≥ 90% | ≥ 90% | 
12 | CC(=O)OC(C)O/C(=C(/C#N)c1ccc(C(C)(C)C)cc1)c1cc(C)nn1C (stereo not drawn) [Compound 26] | ≥ 95% | ≥ 90% | ≥ 90% | 
13 | CCn1nc(C)cc1/C(OC(C)OC(=O)C1CCCCC1)=C(\C#N)c1ccc(C(C)(C)C)cc1 (stereo not drawn) [Compound 261] | ≥ 95% | ≥ 90% | ≥ 90% | 
14 | CCOC(=O)OCO/C(=C(/C#N)c1ccc(C(C)(C)C)cc1)c1cc(C)nn1C [Compound 452] | ≥ 95% | ≥ 90% | ≥ 90% | 
15 | CCn1nc(C)cc1/C(OCOC(=O)OC)=C(\C#N)c1ccc(C(C)(C)C)cc1 [Compound 547] |  |  |  | pest or weed control at 2 µg/mL [1, 7]: ≥ 90%; pest or weed control at 0.5 µg/mL [1, 10]: 93%; pest or weed control at 2 µg/mL [2, 8]: ≥ 90%; pest or weed control at 2 µg/mL [2, 11]: 100%; pest or weed control at 1.25 µg/mL [3, 12]: 100%; pest or weed control at 1.25 µg/mL [3, 9]: ≥ 90%
16 | CCn1nc(C)c(C)c1/C(OC(C)OC(=O)OCC(C)C)=C(\C#N)c1ccc(C(C)(C)C)cc1 (stereo not drawn) [Compound 969] | ≥ 95% | ≥ 90% | ≥ 90% | pest or weed control at 2 µg/mL [1, 7]: ≥ 90%; pest or weed control at 2 µg/mL [2, 8]: ≥ 90%; pest or weed control at 1.25 µg/mL [3, 9]: ≥ 90%
17 | CCn1nc(C)c(C)c1/C(OCOC(=O)CF)=C(\C#N)c1ccc(C(C)(C)C)cc1 [Compound 387] |  |  |  | pest or weed control at 2.5 µg/mL ([1]; 48 h, read-out: nymph-killing activity): ≥ 95%; pest or weed control at 5 µg/mL ([2]; read-out: ovicidal activity): ≥ 90%; pest or weed control at 2.5 µg/mL [3, 9]: ≥ 90%
18 | CCC(=O)OC(C)O/C(=C(/C#N)c1ccc(C(C)(C)C)cc1)c1c(Cl)c(C)nn1CC (stereo not drawn) [Compound 327] | ≥ 95% | ≥ 90% | ≥ 90% | pest or weed control at 2 µg/mL [1, 7]: ≥ 90%; pest or weed control at 2 µg/mL [2, 8]: ≥ 90%; pest or weed control at 1.25 µg/mL [3, 9]: ≥ 90%
19 | CCn1nc(C)c(Cl)c1/C(OCOC(=O)C1CC1)=C(\C#N)c1ccc(C(C)(C)C)cc1 [Compound 309] | ≥ 95% | ≥ 90% | ≥ 90% | pest or weed control at 2 µg/mL [1, 7]: ≥ 90%; pest or weed control at 2 µg/mL [2, 8]: ≥ 90%; pest or weed control at 1.25 µg/mL [3, 9]: ≥ 90%
20 | CCCC(=O)OC(C)O/C(=C(/C#N)c1ccc(C(C)(C)C)cc1)c1c(Cl)c(C)nn1C (stereo not drawn) [Compound 103] | ≥ 95% | ≥ 90% | ≥ 90% | 
21 | Cc1cc(/C(OC(C)OC(=O)OCC(F)(F)F)=C(\C#N)c2ccc(C(C)(C)C)cc2)n(C)n1 (stereo not drawn) [Compound 499] | ≥ 95% | ≥ 90% | ≥ 90% | 
22 | CCn1nc(C)c(C)c1/C(OCOC(C)=O)=C(\C#N)c1ccc(C(C)(C)C)cc1 [Compound 376] | ≥ 95% | ≥ 90% | ≥ 90% | 
23 | CCn1nc(C)c(Cl)c1/C(OCOC(=O)C(C)(C)C)=C(\C#N)c1ccc(C(C)(C)C)cc1 [Compound 305] | ≥ 95% | ≥ 90% | ≥ 90% | pest or weed control at 2 µg/mL [1, 7]: ≥ 90%; pest or weed control at 2 µg/mL [2, 8]: ≥ 90%; pest or weed control at 1.25 µg/mL [3, 9]: ≥ 90%
24 | Cc1cc(/C(OCOC(=O)c2ccccc2)=C(\C#N)c2ccc(C(C)(C)C)cc2)n(C)n1 [Compound 14] | ≥ 95% | ≥ 90% | ≥ 90% | 
25 | Cc1cc(/C(OCOC(=O)C(C)C)=C(\C#N)c2ccc(C(C)(C)C)cc2)n(C)n1 [Compound 4] | ≥ 95% | ≥ 90% | ≥ 90% | 
26 | CCn1nc(C)c(C)c1/C(OC(C)OC(=O)Cc1ccccc1)=C(\C#N)c1ccc(C(C)(C)C)cc1 (stereo not drawn) [Compound 415] |  | ≥ 90% | ≥ 90% | pest or weed control at 2.5 µg/mL ([1]; concentration 2.5 mg/L, 48 h, read-out: nymph-killing activity): ≥ 95%
27 | Cc1nn(C)c(/C(OC(C)OC(=O)C(F)(F)F)=C(\C#N)c2ccc(C(C)(C)C)cc2)c1Cl (stereo not drawn) [Compound 113] | ≥ 95% | ≥ 90% | ≥ 90% | 
28 | CCn1nc(C)c(Cl)c1/C(OCOC(=O)c1ccccc1)=C(\C#N)c1ccc(C(C)(C)C)cc1 [Compound 314] | ≥ 95% | ≥ 90% | ≥ 90% | 
29 | CCn1nc(C)cc1/C(OC(C)OC(=O)CSC)=C(\C#N)c1ccc(C(C)(C)C)cc1 (stereo not drawn) [Compound 260] | ≥ 95% | ≥ 90% | ≥ 90% | 
